# Counter-ions that a name gives are not always drawn. Like-named read-outs stand apart in the source and are kept apart here.
# Target: T1, recombinant human BACE-1 (Homo sapiens, UniProt P56817)
# T1 construct: purchased R & D Systems
# Test: BACE-1 FRET peptide cleavage assay
# Format: biochemical
# Settings: FRET peptide with Swedish variant, 20 mM sodium acetate, 0.1% Triton-X-100, pH 4.5, 2 h, 25° C., triplicate
# Method: The ability of the HS oligosaccharides to inhibit BACE-1 cleavage of APP was assessed using a fluorescent resonance energy transfer (FRET) peptide cleavage assay employing the Swedish amino acid variant FRET peptide 5-FAM-Glu-Val-Asn-Leu-Asp-Ala-Phe-Lys(QXL520)-OH. When intact, the amino terminal fluorophore is quenched, but upon enzymatic cleavage, it is released from quencher and fluoresces at 520 nm.
# BACE inhibition assays: The ability of the compounds to inhibit BACE-1 cleavage of APP was assessed using a fluorescent resonance energy transfer (FRET) peptide cleavage assay employing the FRET peptide HiLyteFluor™488-Glu-Val-Asn-Leu-Asp-Ala-Glu-Phe-Lys(QXL520)-OH (Anaspec Inc, San Jose, Calif.), containing the Swedish amino acid variant. Assays were performed in triplicate in 96-well black plates (Greiner Bio-One Ltd) in a total volume of 100 μl of 20 mM sodium acetate, 0.1% Triton-X-100, pH 4.5 using 114 pmoles FRET peptide/well and 0.1 μg of recombinant human BACE-1 (R & D Systems; specific activity >3.5 pmol/min/μg). Inhibitors were added at 0.01 to 50 μg/mL and mixed with enzyme prior to addition of substrate. Appropriate controls for enzyme activity and background fluorescence were employed and plates were incubated (2 h, 25° C.) with reaction stopped by addition of 100 μl 2.5 M sodium acetate. Fluorescence 480ex/520em was measured on a Polarstar plate reader (BMG LabTechnologies, U.K.) and data were analyzed by plotting log concentration of inhibitor against percent inhibition and using a logistic sigmoidal curve fitting function using OriginPro 8 software (OriginLab Corporation, MA).
# [1] = read-out: IC50 (μg/ml), inhibitory activity for cleavage of FRET peptide by BACE-1 (converted)
# [2] = read-out: IC50 (μmol), inhibitory activity for cleavage of FRET peptide by BACE-1
# T1 sequence (P56817 46-501): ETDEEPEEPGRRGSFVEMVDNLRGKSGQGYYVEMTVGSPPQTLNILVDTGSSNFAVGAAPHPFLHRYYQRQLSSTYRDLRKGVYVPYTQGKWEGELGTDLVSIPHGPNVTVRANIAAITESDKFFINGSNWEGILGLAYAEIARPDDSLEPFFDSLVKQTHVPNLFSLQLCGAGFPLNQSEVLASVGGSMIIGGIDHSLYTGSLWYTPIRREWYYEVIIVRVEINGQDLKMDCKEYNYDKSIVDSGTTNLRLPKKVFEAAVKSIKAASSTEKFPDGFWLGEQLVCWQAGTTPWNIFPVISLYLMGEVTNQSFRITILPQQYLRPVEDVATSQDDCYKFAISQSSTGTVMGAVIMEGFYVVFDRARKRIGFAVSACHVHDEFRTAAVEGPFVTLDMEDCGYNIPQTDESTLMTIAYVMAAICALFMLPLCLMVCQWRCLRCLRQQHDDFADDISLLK
SMILES,IC50 [1],IC50 [2]
"NCCCCCOC1OC(COS(=O)(=O)O)C(OC2OC(C(=O)O)C(OC3OC(COS(=O)(=O)O)C(OC4OC(C(=O)O)C(OC5OC(COS(=O)(=O)O)C(OC6OC(C(=O)O)C(O)C(O)C6O)C(O)C5NS(=O)(=O)O)C(O)C4O)C(O)C3NS(=O)(=O)O)C(O)C2O)C(O)C1NS(=O)(=O)O [Compound 69, 5-aminopentyl [(β-D-glucopyranosyluronate)-(1→4)-(2-deoxy-2-sulfoamino-6-O-sulfonato-α-D-glucopyranoside)-(1→4)-O-(α-L-idopyranosyluronate)-(1→4)-O-(2-deoxy-2-sulfoamino-6-O-sulfanate-α-D-glucopyranoside)-(1→4)-(β-D-glucopyranosyluronate)]-(1→4)-O-2-deoxy-N-sulfoamino-6-O-sulfonate-α-D-glucopyranoside nonasodium salt]",40.1 µM,36 µM
"CC(=O)NC1C(OC2C(C(=O)O)OC(OC3C(COS(=O)(=O)O)OC(OCCCCCN)C(NC(C)=O)C3O)C(O)C2O)OC(COS(=O)(=O)O)C(OC2OC(C(=O)O)C(O)C(O)C2O)C1O [Compound 76, 5-aminopentyl [(β-D-glucopyranosyluronate)-(1→4)-(2-acetamido-2-deoxy-6-O-sulfanate-α-D-glucopyranoside)-(1→4)-O-(β-D-glucopyranosyluronate-(1→4)-O-2-acetamido-2-deoxy-6-O-sulfanate-α-D-glucopyranosidetetrasodium salt]",38.2 µM,35 µM
"CC(=O)NC1C(OC2C(C(=O)O)OC(OC3C(COS(=O)(=O)O)OC(OCCCCCN)C(NC(C)=O)C3O)C(O)C2O)OC(COS(=O)(=O)O)C(OC2OC(C(=O)O)C(O)C(O)C2O)C1O [Compound 78, 5-Aminopentyl[β-D-glucopyranosyluronate-(1→4)-(2-acetamido-2-deoxy-6-O-sulfonate-α-D-glucopyranoside)-(1→4)-α-L-idopyranosyluronate)]-(1→4)-2-acetamido-2-deoxy-6-O-sulfonate-α-D-glucopyranoside tetrasodium salt]",> 294 µM,

# More lines, now with the values ahead:
IC50 [1],IC50 [2],SMILES
152 µM,138 µM,"CC(=O)NC1C(OC2C(C(=O)O)OC(OC3C(COS(=O)(=O)O)OC(OCCCCCN)C(NC(C)=O)C3O)C(OS(=O)(=O)O)C2O)OC(COS(=O)(=O)O)C(OC2OC(C(=O)O)C(O)C(O)C2O)C1O [Compound 85, 5-Aminopentyl [((3-D-glucopyranosyluronate)-(1→4)-O-(2-acetamido-2-deoxy-6-O-sulfonato-α-D-glucopyranoside)-(1→4)-O-(2-O-sulfonato-α-L-idopyranosyluronate)]-(1→4)-2-deoxy-2-acetamido-6-O-sulfonate-α-D-glucopyranosidepentasodium salt]"
> 272 µM,,"CC(=O)NC1C(OC2C(C(=O)O)OC(OC3C(COS(=O)(=O)O)OC(OCCCCCN)C(NC(C)=O)C3O)C(OS(=O)(=O)O)C2O)OC(COS(=O)(=O)O)C(OC2OC(C(=O)O)C(O)C(O)C2O)C1O [Compound 84, 5-Aminopentyl [(α-L-idopyranosyluronate)-(1→4)-O-(2-acetamido-2-deoxy-6-O-sulfonate-α-D-glucopyranoside)-(1→4)-O-(2-O-sulfonato-α-L-idopyranosyl-uronate)]-(1→4)-2-deoxy-2-acetamido-6-O-sulfonate-α-D-glucopyranoside penta sodium salt]"
> 255 µM,,"NCCCCCOC1OC(COS(=O)(=O)O)C(OC2OC(C(=O)O)C(OC3OC(COS(=O)(=O)O)C(OC4OC(C(=O)O)C(O)C(O)C4O)C(O)C3NS(=O)(=O)O)C(O)C2OS(=O)(=O)O)C(O)C1NS(=O)(=O)O [Compound 86, 5-Aminopentyl [(β-D-glucopyranosyluronate)-(1→4)-O-(2-deoxy-2-sulfamino-6-O-sulfonate-α-D-glucopyranoside)-(1→4)-O-(2-O-sulfonate-α-L-idopyranosyluronate)-(1→4)-2-deoxy-2-sulfoamino-6-O-sulfonate-α-D-glucopyranosideheptasodium salt]"
102 µM,94 µM,"CC(=O)NC1C(OC2C(C(=O)O)OC(OC3C(COS(=O)(=O)O)OC(OCCCCCN)C(NC(C)=O)C3O)C(O)C2O)OC(COS(=O)(=O)O)C(OC2OC(C(=O)O)C(O)C(O)C2O)C1O [Compound 80, 5-aminopentyl [(α-L-idopyranosyluronate)-(1→4)-O-(2-acetamido-2-deoxy-6-O-sulfonate-α-D-glucopyranoside)-(1→4)-O-(β-D-glucopyranosyluronate)]-(1→4)-(2-acetamido-2-deoxy-6-O-sulfonate-α-D-glucopyranosidetetrasodium salt]"
34.2 µM,32 µM,"CC(=O)NC1C(OC2C(C(=O)O)OC(OC3C(COS(=O)(=O)O)OC(OCCCCCN)C(NC(C)=O)C3O)C(O)C2O)OC(COS(=O)(=O)O)C(OC2OC(C(=O)O)C(O)C(O)C2O)C1O [Compound 82, 5-aminopentyl [(α-L-idopyranosyluronate)-(1→4)-(2-acetamido-2-deoxy-6-O-sulfonate-α-D-glucopyranoside)-(1→4)-O-(α-L-idopyranosyluronate-(1→4)-O-2-acetamido-2-deoxy-6-O-sulfonate-α-D-glucopyranosidetetrasodium salt]"

# Reference: patent US10174132B2, “Heparan sulfate synthesis” (UNIVERSITY OF GEORGIA RESEARCH FOUNDATION, INC., priority 2009, dated 2019)
